Results published in article PMC5190053, “Blocking the PAH2 domain of Sin3A inhibits tumorigenesis and confers retinoid sensitivity in triple negative breast cancer” (Oncotarget, 2016).

Molecular target: T1, mSin3A PAH2 domain; SIN3A PAH2; Sin3A
T1 construct: PAH2 (paired amphipathic helix 2) domain only
Experiment: fluorescence anisotropy competition assay
Type: binding, Mus musculus
Conditions: conditions cited to earlier work

O=C(O)c1cccc2c1NC(c1cccc(Cl)c1Cl)C1CC=CC21 (stereo not shown) [C16, 4-(2,3-Dichlorophenyl)-3a,4,5,9b-tetrahydro-3H-cyclopenta[c]quinoline-6-carboxylic acid]
Ki: 23.6 µM
